In ChEMBL document CHEMBL1143852, “Controlled trial of a 5-day course of telithromycin versus doxycycline for treatment of mild to moderate scrub typhus” (2007) one finds Activity data, which are given here for 2 compounds.

The test system of the experiment is Orientia tsutsugamushi. Description: Antimicrobial activity against doxycyclin-resistant Orientia tsutsugamushi in patient of scrub typhus assessed as recovery from infection. Type of experiment: functional.

As to `C[C@H]1c2cccc(O)c2C(=O)C2=C(O)[C@]3(O)C(=O)C(C(N)=O)=C(O)[C@@H](N(C)C)[C@@H]3[C@@H](O)[C@@H]21.O` [DOXYCYCLINE], the Activity was 97.8%.
Take `CC[C@H]1OC(=O)[C@H](C)C(=O)[C@H](C)[C@@H](O[C@@H]2O[C@H](C)C[C@H](N(C)C)[C@H]2O)[C@](C)(OC)C[C@@H](C)C(=O)[C@H](C)[C@H]2N(CCCCn3cnc(-c4cccnc4)c3)C(=O)O[C@]12C` [TELITHROMYCIN]: the Activity is listed as 100%.
